One data set has as its system primary AML cells. The data set is described as follows: Apoptosis in primary AML samples, subG1 DNA flow cytometry. The data set is classed as cell-based, human. As for the experimental part: Subjects. Samples of bone marrow or peripheral blood were obtained for in vitro studies from patients with newly diagnosed or recurrent AML with high (>70%) blast count and from patients with myeloid transformation of chronic myeloid leukemia (CML). Informed consent was obtained following institutional guidelines. Mononuclear cells were separated by Ficoll-Hypaque (Sigma Chemical Co) density-gradient centrifugation.
Suspension culture of leukemic cells. Leukemic cell lines were cultured at a density of 3.0×10^5 cells/mL, and AML mononuclear cells at 5×10^5 cells/mL in the presence or absence of indicated concentrations of CDDO-Me. Appropriate amounts of DMSO (final concentration<0.05%) was included as a control. For cytotoxicity studies, 1 μM ara-C was added to the cultures.
Cell kinetic and DNA fragmentation studies. The cell cycle kinetics was determined by staining cells with acridine orange for cellular DNA and RNA content followed by flow cytometeric analysis as described. […] Ten thousand events were stored in list mode for analysis. The percentage of cells in the “sub G1 peak” defined the proportion of apoptotic cells in the tested populations. […] Cell-cycle kinetics was analyzed using ModFit software (Verity Software House, Inc., Topsham, Me.). […]
For orientation: Flow cytometry measures light scatter and fluorescence of single cells or particles in a stream.

For data set [1], the system named is Bcl-2 mRNA in HL-60 cells. The data set is described as follows: Bcl-2 mRNA by quantitative TaqMan PCR. In kind it is cell-based, human. Conditions: 72 hours. The protocol:
(§1) The effect of CDDO on the Bcl-2 mRNA expression was analyzed utilizing quantitative TaqMan PCR. In HL-60 cells, Bcl-2 mRNA decreased at 24 hrs and decreased further (>than 10-fold) at 72 hours; in NB4 cells, a small decrease of Bcl-2 mRNA (2-fold) was observed only at 72 hrs (FIG. 9).

The subject of another data set is Bcl-2 mRNA in NB4 cells. The data set is described as follows: Bcl-2 mRNA by quantitative TaqMan PCR. In kind it is cell-based, human. The following applies: 72 hrs. As for the experimental part:
as §1

The text on data set [2]: Subacute toxicity studies. An important aspect of this invention of CDDO-compounds and its combination therapies with other chemotherapeutics is to assess the toxicity and relative therapeutic efficacy of CDDO-compounds. The preliminary toxicity (i.e. determination of LD50 and MTD [maximum tolerated dose]) of CDDO-compounds was studied in healthy BALB/C mice (male and female, 25-30 g) after single i. v. or oral injections. Seven different dose levels (10 mice/dose level) were used after the appropriate pilot dosing experiments to define a MTD dose for both the oral and iv routes of administration. Animals were observed and weighed daily. The experiment was terminated on day 14. Surviving animals were sacrificed by exposure to carbon dioxide. The unit-dose effect line will be constructed and used to calculate lethal doses LD10 and LD50).
Determination of MTD. 60 female Balb/C mice divided into 12 groups of 5 mice. With 5 mice per dose level, six dose levels for IV or oral drug administration were used.
Intravenous CDDO administration. Groups of mice received CDDO intravenously as a single bolus injection into the tail vein on Day 1. […] The typical organs from each mouse that are examined include brain, heart, lungs, spleen, pancreas, kidneys, liver, gastrointestinal tract, lymph nodes, muscle, bone marrow, and skin.
Intravenous CDDO-Me administration. Groups of mice received CDDO-Me intravenously as a single bolus injection into the tail vein on Day 1. […] The typical organs from each mouse that are examined include brain, heart, lungs, spleen, pancreas, kidneys, liver, gastrointestinal tract, lymph nodes, muscle, bone marrow, and skin.

For data set [3], the system named is bone marrow endothelial cells. The data set is described as follows: Matrigel tube-like endothelial structure formation. The data set is classed as cell-based. The protocol: CDDO. PPARγ nuclear receptor is expressed in bone marrow endothelial cells, and PPARγ ligands inhibit inhibited endothelial cell proliferation. […] The present inventors therefore tested the effects of CDDO in endothelial cell assays. The formation of tube-like endothelial structures was performed using Matrigel®, a basement membrane matrix extracted from the Engelbreth-Holm Swarm mouse sarcoma cell line. Bone marrow endothelial cells with recombinant angiogenic cytokines were incubated in the presence or absence of CDDO, and formation of tube-like endothelial structures was assessed by direct observation using a inverted contrast-phase microscope. […] Vascular endothelial cells (HUVEC) were grown in EBM-2 or EGM-2 media (Clonetics) containing VEGF, EGF, bFGF and IGF-1. The proliferation of endothelial cells was assessed by inverted contrast-phase microscope after 24 hrs of CDDO exposure in the indicated concentrations. CDDO-Me. The formation of tube-like endothelial structures that are associated with angiogenesis was analyzed using a Matrigel system (Kubota et al., 1988). Capillary-like structure formation of bone marrow endothelium was inhibited by CDDO-Me. […] Thus, CDDO-Me also has anti-angiogenic effects.

Another data set deals with HL-60-Dox cells. Nature of the data set: Killing of MDR-1 expressing cells. In kind it is cell-based, human.
The next data set has as its system U937 and HL-60 cells. Nature of the data set: Phi-Phi-Lux cleavage with caspase-3 inhibitor Z-DEVD-fmk pre-treatment. In kind it is cell-based, human. As for the experimental part: Detection of active caspases. The cell-permeable fluorogenic substrate Phi-Phi-Lux-G1D2 was administered to monitor caspase activity according to the manufacturer's recommendations (OncoImmunin, Inc, Kensington, Md.). Briefly, 10^6 cells were resuspended in 5 μL of substrate solution and incubated for 1 hour at 37° C. in the dark. After incubation, cells were washed, and the fluorescence emission was determined using the FL-1 channel of a Becton Dickinson FACScan flow cytometer.
CDDO-Me. […] Effects of CDDO-Me on the cleavage of caspase-3 were analyzed utilizing the fluorogenic substrate of caspase-3 Phi-Phi-Lux.

In data set [4] the test system is ERK immunoprecipitated from K562 cells. The data set is described as follows: In vitro ERK (MAPK kinase) assay, MBP phosphorylation. Conditions: 0.1, 1, and 10 μM. The data set is classed as biochemical. The protocol: In vitro ERK assay. The effect of CDDO or CDDO-Me was determined using an in vitro MAPK kinase assay kit from Upstate Biotechnology (Lake Placid, N.Y.) and ERK1/2 antibody from Santa Cruz Biotechnology (Santa Cruz, Calif.). For each sample, ERK 1/2 was immunoprecipitated from 2×10^7 K562 or 1×10^7 HL60 cells using a specific anti-ERK 1/2 antibody and Protein A agarose (Life Technologies, Rockville, Md.). The ERK-containing agarose pellet was resuspended in Assay Buffer containing an inhibitor cocktail (PKC inhibitor peptide, PKA inhibitor peptide, and Compound R24571) to block possible contaminating non-ERK kinases. Where appropriate, varying concentrations (0.1, 1, and 10 μM) of CDDO or CDDO-Me was added. Dephosphorylated myelin basic protein (MBP; 25 μg) was used as substrate. Phosphorylation of MBP was observed by using an anti-phospho-MBP antibody. […] The amount of ERK2 immunoprecipitated from each sample was determined by using anti-ERK2 antibody.
To determine specific effects of CDDO-Me on ERK activity the inventors used an in vitro MAPK kinase assay kit. ERK was immunoprecipitated from K562 cells since these cells contain the Bcr-Abl kinase and activated ERK present in these cells under basal conditions.

Like-named read-outs stand apart in the source and are kept apart here.

Turning to `CC1(C)CCC2(C(=O)O)CCC3(C)C(C(=O)C=C4C5(C)C=C(C#N)C(=O)C(C)(C)C5CCC43C)C2C1` (stereo not drawn) [CDDO, 2-cyano-3,12-dioxoolen-1,9-dien-28-oic acid], the entries for the “AML samples in which apoptosis was induced” value in the data set with primary AML cells (1 μM) and in the data set with primary AML cells (5 μM) were 3 of 6 and 5 of 6, respectively. For the same compound, the “apoptosis in AML samples” value with primary AML cells (CDDO 1 μM, ara-C 1 μM, alone or combined, n=23 (DMSO control 27.7±3.7%)) came out at 41.2±4.4%. Besides, the “paired mean difference±SEM in apoptosis” value in the data set on primary AML cells (CDDO vs DMSO) was 13.5%±2.8. The “decrease of Bcl-2 mRNA” value was over 10 fold in data set [1] and 2 fold with Bcl-2 mRNA in NB4 cells. For the same compound, the Diagnoses/observations result in data set [2] (mouse, in vivo, iv, 0.3 mg/kg) is recorded as “Myeloid hyperplasia bone marrow”; in data set [2] (mouse, in vivo, iv, 3 mg/kg), “Myeloid hyperplasia, bone marrow”. In addition, in data set [3], the “formation of capillary-like structures by bone marrow endothelium” value is listed as “potently inhibited the formation of capillary-like structures”. Also, the “sensitivity of HL-60-Dox cells with high expression of the MDR-1 gene” value in the data set with HL-60-Dox cells is recorded as “sensitive to CDDO-induced killing”.

As to `COC(=O)[C@]12CCC(C)(C)C[C@H]1[C@H]1C(=O)C=C3[C@@]4(C)C=C(C#N)C(=O)C(C)(C)[C@@H]4CC[C@@]3(C)[C@]1(C)CC2` [CDDO-Me], the “paired mean difference to DMSO control (mean±SEM), apoptotic cells” value in the data set with primary AML cells (0.1 μM) is recorded as 26.9%±10.8; in the data set on primary AML cells (0.5 μM), 43.2%±5.2. The entries for the “AML samples in which apoptosis was induced” value in the data set with primary AML cells (1 μM) and with primary AML cells (5 μM) were 5 of 6 and 6 of 6, respectively. The “samples with more than 90% apoptotic cells” value in the data set on primary AML cells (5 μM) is given as 4/6. Moreover, the “cell killing in AML samples” value in the data set on primary AML cells (CDDO-Me 1 μM, ara-C 1 μM, alone or combined, n=6 (DMSO control 24.9±7.4%)) is reported as 50.5±15%. For the same compound, in the data set on primary AML cells (lower concentrations), the “samples with dose-dependent increase in percentage of apoptotic cells” value was 4/4. Besides, the “cleavage of Phi-Phi-Lux” value in the data set with U937 and HL-60 cells (CDDO-Me without inhibitor) is recorded as 15.1%; in the data set with U937 and HL-60 cells (pre-treatment with 25 μM Z-DEVD-fmk for 1 hour), 2.7%. For the same compound, the Diagnoses/observations entry is listed as “DIED @ 5 minutes” in data set [2] (CDDO-Me IV single bolus, 1.0 mg/kg, 14 days) and “Myeloid hyperplasia bone marrow” in data set [2] (mouse, in vivo, iv). In addition, the “formation of capillary-like structures by bone marrow endothelium” value in data set [3] is reported as “inhibited”. Besides, the “MBP phosphorylation by ERK” value in data set [4] is on record as “inhibited MBP phosphorylation in a dose-dependent manner”. The “sensitivity of HL-60-Dox cells with high expression of the MDR-1 gene” value in the data set with HL-60-Dox cells is listed as “sensitive to CDDO-Me-induced killing”.

The record behind these values is patent US7795305B2, “CDDO-compounds and combination therapies thereof” (Board of Regents, The University of Texas System, priority 2000, dated 2010).
